Experiments:
[1] = test system: isolated ileum of guinea-pig; test: Test for anticholinergic effects on the isolated ileum of guinea-pig (acetylcholine contraction, in vitro); set-up: species or system guinea-pig (male Hartly-strain); details: depressing ratio of 80% or more of acetylcholine contraction, compound 3 minutes before; for minimal effective concentration: Cavia porcellus, 0.05 h, read-out: Anticholinergic activity: MED (minimum effective dose)
Procedure: (§1) Male Hartly-strain guinea-pigs weighing about 250 g are killed and the abdomen is opened. The part (2-3 cm in length) of the ileum 10 cm away from the caecum to the pylorus is cut off as a preparation. The preparation is suspended with serre-fine in a Magnus bath containing 10 ml of Tyrode's solution at 32±1° C. under an air bubble. The contraction of the ileum is recorded on Kymograph through hebel when 0.1 ml of acetylcholine at a concentration of 10^-3 g/ml is added to the Tyrode's solution.
(§2) On the other hand, 3 minutes after administration of the test compounds, the same procedure as mentioned above is carried out to record the contraction.

[2] = test system: blood platelets (platelet-rich plasma); test: Test for the inhibition of platelet aggregation (collagen-induced, platelet-rich plasma); type: cell-based, male white rabbits; details: depressing ratio of 50% of collagen-induced aggregation, compound 3 minutes before; for minimal effective concentration: Oryctolagus cuniculus, Platelet, 0.05 h, read-out: Antiplatelet aggregation activity: MED
Procedure: In this test, 9 vols. of blood are sampled from the caroted artery of male white rabbits weighing 2 to 2.5 kg and placed in a silicon-coated flask containing 1 vol. of 3.8% sodium citrate. The thus obtained blood is centrifuged at 1,000 rpm for 15 minutes to obtain platelet-rich plasma. The aggregation of the blood platelets is observed using an aggregometer, when collagen is added to the platelet-rich plasma to the extent of the final concentration that 50% of platelet aggregation is caused in the presence of 100 γ/ml of aspirin. On the other hand, 3 minutes after administration of the test compounds to the platelet-rich plasma, the same procedure as mentioned above is carried out to observe the aggregation of blood platelet. The test compounds showing a depressing ratio of 50%, compared with the inhibition of aggregation by collagen alone, are concluded to have antiplatelet aggregation activity.

[3] = test system: isolated ileum of guinea-pig; test: Test for antihistaminergic effects on the isolated ileum of guinea-pig (histamine contraction, in vitro); set-up: species or system guinea-pig (male Hartly-strain); details: depressing ratio of 80% or more of histamine contraction; for minimal effective concentration: Cavia porcellus, 0.05 h, read-out: Antihistaminergic activity: MED
Procedure: as §1, §2
In this test, 0.1 ml of histamine at a concentration of 5×10^-3 g/l is used.

[4] = Antiasthmatic activity; type: in vivo; details: po; for minimal effective dose: read-out: Antiasthmatic activity: MED
[5] = test system: male dd-strain rats; test: Acute toxicity test (minimum lethal dose); type: in vivo; details: mortality for 7 days
Procedure: Groups of male dd-strain rats (each group consisting of five rats) weighing 20±1 g were used. The compounds of the present invention were administered orally (po: 0.3 mg/g) or intraperitoneally (ip: 0.1 mg/g). The MLD (minimum lethal dose) was calculated from the mortality for 7 days after the administration to obtain the results given in Table 1.

Molecule	minimal effective concentration [1] [µg/mL]	minimal effective concentration [2] [µg/mL]	minimal effective concentration [3] [µg/mL]	minimal effective dose [4] [mg/kg]	Acute toxicity: MLD (minimum lethal dose) ([5]; ip) [mg/kg]	Acute toxicity: MLD (minimum lethal dose) ([5]; po) [mg/kg]	Anticholinergic activity: MED (minimum effective dose) [1] [µg/mL]	Antiplatelet aggregation activity: MED [2] [µg/mL]	Antihistaminergic activity: MED [3] [µg/mL]	Antiasthmatic activity: MED [4] [mg/kg]
Cc1ccc2c(c1)C(N1CCN(C)CC1)c1ccccc1CO2 (stereo not drawn) [Compound 67, 2-methyl-11-(4-methyl-1-piperazinyl)-6,11-dihydrodibenz[b,e]oxepin]	10	50	0.3	25	> 100	> 300	–	–	–	–
COc1ccc2c(c1)C(N1CCN(C)CC1)c1ccccc1CO2 (stereo not drawn) [Compound 68, 2-methoxy-11-(4-methyl-1-piperazinyl)-6,11-dihydrodibenz[b,e]oxepin]	10	100	3	100	100	200	–	–	–	–
CCc1ccc2c(c1)C(NCCN(C)C)c1ccccc1CO2 (stereo not drawn) [Compound 17, 2-ethyl-11-{2-(dimethylamino)ethyl}amino-6,11-dihydrodibenz[b,e]oxepin]	0.01	50	0.3	10	> 100	300	–	–	–	–
CC(C)(C)c1ccc2c(c1)C(NC1CN3CCC1CC3)c1ccccc1CO2 (stereo not drawn) [Compound 52, 2-(1,1-dimethyl)ethyl-11-(3-quinuclidinyl)amino-6,11-dihydrodibenz[b,e]oxepin]	3	1	0.3	50	100	> 300	–	–	–	–
COc1ccc2c(c1)C(NC1CN3CCC1CC3)c1ccccc1CO2 (stereo not drawn) [Compound 24, 2-methoxy-11-(3-quinuclidinyl)amino-6,11-dihydrodibenz[b,e]oxepin]	0.3	100	0.1	50	100	200	–	–	–	–
Cc1ccc2c(c1)C(NCCCN(C)C)c1ccccc1CO2 (stereo not drawn) [Compound 14, 2-methyl-11-{3-(dimethylamino)propyl}amino-6,11-dihydrodibenz[b,e]oxepin]	10	20	10	100	> 100	> 300	–	–	–	–
Cc1ccc2c(c1)C(NCCN(C)C)c1ccccc1CO2 (stereo not drawn) [Compound 16, 2-methyl-11-{2-(dimethylamino)ethyl}amino-6,11-dihydrodibenz[b,e]oxepin]	3	50	10	25	> 100	300	–	–	–	–
CCc1ccc2c(c1)C(NCCN(CC)CC)c1ccccc1CO2 (stereo not drawn) [Compound 1, 2-ethyl-11-{2-(diethylamino)ethyl}amino-6,11-dihydrodibenz[b,e]oxepin]	1	20	1	50	> 100	> 300	–	–	–	–
CCN1CCCC1CNC1c2ccccc2COc2ccc(C)cc21 (stereo not drawn) [Compound 28, 2-methyl-11-{(1-ethyl-2-pyrrolidinyl)methyl}-amino-6,11-dihydrodibenz[b,e]oxepin]	1	50	1	25	100	300	–	–	–	–
CN1CCN(C2c3ccccc3COc3ccc(Cl)cc32)CC1 (stereo not drawn) [Compound 70, 2-chloro-11-(4-methyl-1-piperazinyl)-6,11-dihydrodibenz[b,e]oxepin]	1	50	0.3	10	100	200	–	–	–	–
Clc1ccc2c(c1)C(NC1CN3CCC1CC3)c1ccccc1CO2 (stereo not drawn) [Compound 23, 2-chloro-11-(3-quinuclidinyl)amino-6,11-dihydrodibenz[b,e]oxepin]	1	100	0.3	50	100	300	–	–	–	–
CN(C)CCNC1c2ccccc2COc2ccc(Cl)cc21 (stereo not drawn) [Compound 19, 2-chloro-11-{2-(dimethylamino)ethyl}amino-6,11-dihydrodibenz[b,e]oxepin]	3	50	1	25	> 100	> 300	–	–	–	–
Cc1ccc2c(c1)C(NC1CN3CCC1CC3)c1ccccc1CO2 (stereo not drawn) [Compound 20, 2-methyl-11-(3-quinuclidinyl)amino-6,11-dihydrodibenz[b,e]oxepin]	1	100	0.1	50	50	300	–	–	–	–
CCC(C)c1ccc2c(c1)C(NCCN(CC)CC)c1ccccc1CO2 (stereo not drawn) [Compound 11, 2-(1-methyl) propyl-11-{2-(diethylamino)ethyl}amino-6,11-dihydrodibenz[b,e]oxepin]	0.03	10	0.3	100	100	> 300	–	–	–	–
CN(C)CCNC1c2ccccc2COc2ccc(F)cc21 (stereo not drawn) [Compound 18, 2-fluoro-11-{2-(dimethylamino)ethyl}amino-6,11-dihydrodibenz[b,e]oxepin]	0.3	50	0.3	10	> 100	> 300	–	–	–	–
CCC(C)c1ccc2c(c1)C(NC1CN3CCC1CC3)c1ccccc1CO2 (stereo not drawn) [Compound 51, 2-(1-methyl)propyl-11-(3-quinuclidinyl)amino-6,11-dihydrodibenz[b,e]oxepin]	1	50	0.3	50	100	> 300	–	–	–	–
CCc1ccc2c(c1)C(NCCN1CCCCC1)c1ccccc1CO2 (stereo not drawn) [Compound 35, 2-ethyl-11-(2-piperidinoethyl)amino-6,11-dihydrodibenz[b,e]oxepin]	3	20	1	25	> 100	300	–	–	–	–
4-methyl-11-(3-quinuclidinyl)amino-6,11-dihydrodibenz[b,e]oxepin [Compound 56]	–	–	–	–	100	200	1	20	1	100
CN1CCN(C2c3ccccc3COc3ccc(F)cc32)CC1 (stereo not drawn) [Compound 69, 2-fluoro-11-(4-methyl-1-piperazinyl)-6,11-dihydrodibenz[b,e]oxepin]	3	100	10	100	> 100	100	–	–	–	–

— US4396550A, “Dibenz [b,e] oxepin derivatives” (Kyowa Hakko Kogyo Co., Ltd., priority 1980, dated 1983)
